Measured values from patent US20120035217A1, “Bis Aromatic Compounds for Use as LTC4 Synthase Inhibitors” (BIOLIPOX AB, priority 2009, published 2012).
pIC50: −log10 of the molar value.

Target: T1, Recombinant human LTC4 synthase (Homo sapiens, UniProt Q16873)
T1 construct: made in house; host or cells: Pichia pastoris ('Piccia pastoralis' [sic])
T1 sequence (Q16873 1-150): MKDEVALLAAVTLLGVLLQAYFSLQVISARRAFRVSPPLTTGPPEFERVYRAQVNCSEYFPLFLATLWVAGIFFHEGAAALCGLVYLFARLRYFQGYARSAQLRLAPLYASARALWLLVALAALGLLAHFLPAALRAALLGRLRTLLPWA
Assay: Biological in vitro assay: LTC4 synthase conversion of LTA4 to LTC4, HTRF detection
Type: biochemical
Conditions: for % inhibition: total concentration of title compound in the assay 10 μM
Experimental: In the assay, LTC4 synthase catalyses the reaction where the substrate LTA4 is converted to LTC4. Recombinant human LTC4 synthase is expressed in Piccia pastoralis and the purified enzyme is dissolved in 25 mM tris-buffer pH 7.8 supplemented with 0.1 mM glutathione (GSH) and stored at −80° C. The assay is performed in phosphate buffered saline (PBS) pH 7.4 and 5 mM GSH in 384-well plates.
The following is added chronologically to each well:
1. 48 μL LTC4 synthase in PBS with 5 mM GSH. The total protein concentration in this solution is 0.5 μg/mL. 2. 1 μL inhibitor in DMSO (final concentration 10 μM). 3. Incubation of the plate at room temperature for 10 min. 4. 1 μL LTA4 (final concentration 2.5 μM). 5. Incubation of the plate at room temperature for 5 min. 6. 10 μL of the incubation mixture is analysed using homogenous time resolved fluorescent (HTRF) detection.

pIC50 | % inhibition | SMILES
6.54 | 97% | Cc1cc2ncn(-c3ccc(C(=O)c4ccc(N(C)c5ccc(Cl)cc5)cc4)cc3C(=O)O)c2cc1C [Example 1, 5-{4-[(4-Chlorophenyl)(methyl)amino]benzoyl}-2-(5,6-dimethyl-1-benzimidazolyl)-benzoic acid]
6.49 | 99% | CN(c1ccc(Cl)cc1)c1ccc(C(=O)c2ccc(-n3cc(-c4ccccc4)nn3)c(C(=O)O)c2)cc1 [Example 2:1, 5-{4-[(4-Chlorophenyl)(methyl)amino]benzoyl}-2-(4-phenyl-1,2,3-triazol-1-yl)-benzoic acid]
6.67 | 99% | CN(c1ccc(Cl)cc1)c1ccc(C(=O)c2ccc(-n3cc(-c4cccc(Cl)c4)nn3)c(C(=O)O)c2)cc1 [Example 2:2, 5-{4-[(4-Chlorophenyl)(methyl)amino]benzoyl}-2-[4-(3-chlorophenyl)-1,2,3-triazol-1-yl]benzoic acid]
6.81 | 100% | CN(c1ccc(Cl)cc1)c1ccc(C(=O)c2ccc(-n3nncc3-c3ccccc3)c(C(=O)O)c2)cc1 [Example 3:1, 5-{4-[(4-Chlorophenyl)(methyl)amino]benzoyl}-2-(5-phenyl-1,2,3-triazol-1-yl)-benzoic acid]
7.44 | 100% | CN(c1ccc(Cl)cc1)c1ccc(C(=O)c2ccc(-n3nncc3-c3cccc(Cl)c3)c(C(=O)O)c2)cc1 [Example 3:2, 5-{4-[(4-Chlorophenyl)(methyl)amino]benzoyl}-2-[5-(3-chlorophenyl)-1,2,3-triazol-1-yl]benzoic acid]
6.66 |  | CN(c1ccc(Cl)cc1)c1ccc(C(=O)c2ccc(-c3nccn3-c3ccccc3)c(C(=O)O)c2)nc1 [Example 9, 5-{5-[(4-Chlorophenyl)(methyl)amino]picolinoyl}-2-(1-phenylimidazol-2-yl)benzoic acid]
